In patent US20240368106A1, “HYDROXY AND ALKOXY COUMARINS AS MODULATORS OF POLRMT” (Pretzel Therapeutics, Inc., priority 2021, published 2024) one finds IC50 data, which are given here for 26 compounds.

Chain of POLRMT (O00411 42-1230): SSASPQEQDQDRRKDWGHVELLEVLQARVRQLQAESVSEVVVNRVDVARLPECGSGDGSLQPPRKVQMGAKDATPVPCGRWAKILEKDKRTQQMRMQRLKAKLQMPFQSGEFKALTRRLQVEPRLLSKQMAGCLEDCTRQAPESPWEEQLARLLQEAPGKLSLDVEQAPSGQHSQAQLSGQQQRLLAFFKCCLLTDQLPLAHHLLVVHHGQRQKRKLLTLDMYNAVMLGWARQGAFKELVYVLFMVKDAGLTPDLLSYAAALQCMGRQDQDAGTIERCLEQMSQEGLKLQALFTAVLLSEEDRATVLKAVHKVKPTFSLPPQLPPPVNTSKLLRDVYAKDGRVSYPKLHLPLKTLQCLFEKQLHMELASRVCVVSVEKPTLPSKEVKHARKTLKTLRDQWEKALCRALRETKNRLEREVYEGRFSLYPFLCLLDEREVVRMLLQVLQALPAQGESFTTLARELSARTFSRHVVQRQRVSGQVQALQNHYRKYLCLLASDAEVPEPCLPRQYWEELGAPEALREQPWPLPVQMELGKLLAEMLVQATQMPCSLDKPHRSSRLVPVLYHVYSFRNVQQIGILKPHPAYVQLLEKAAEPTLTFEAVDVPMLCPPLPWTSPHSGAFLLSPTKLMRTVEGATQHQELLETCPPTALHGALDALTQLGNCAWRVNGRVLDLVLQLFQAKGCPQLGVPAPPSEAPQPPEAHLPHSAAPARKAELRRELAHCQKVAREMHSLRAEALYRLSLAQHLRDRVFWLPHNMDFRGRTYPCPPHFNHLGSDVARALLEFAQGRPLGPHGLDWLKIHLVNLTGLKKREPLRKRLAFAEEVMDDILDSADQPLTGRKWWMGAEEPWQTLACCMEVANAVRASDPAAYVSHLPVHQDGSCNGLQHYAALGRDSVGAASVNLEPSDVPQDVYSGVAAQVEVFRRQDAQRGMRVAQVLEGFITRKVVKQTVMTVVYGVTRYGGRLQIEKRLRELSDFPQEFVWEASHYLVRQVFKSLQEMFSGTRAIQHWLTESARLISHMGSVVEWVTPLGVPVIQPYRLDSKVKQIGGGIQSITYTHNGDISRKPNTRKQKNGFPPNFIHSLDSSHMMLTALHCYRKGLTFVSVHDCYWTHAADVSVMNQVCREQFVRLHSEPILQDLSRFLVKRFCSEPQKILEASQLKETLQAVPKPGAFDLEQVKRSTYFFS

The assay has as its target POLRMT (Homo sapiens (Human), UniProt O00411). Kind of assay: homogeneous TR-FRET assay of mitochondrial transcription (inhibition of POLRMT). It counts as biochemical. Conditions: 7.5 nM POLRMT, 15 nM TFB2M, 30 nM TFAM, 0.5 nM DNA template, 500 μM NTPs, 37° C., 60 minutes. In short, it runs like this:
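Human POLRMT (7.5 nM) with TFB2M (15 nM), TFAM (30 nM), 0.5 nM linearized LSP plasmid template and 500 μM NTPs in pH 7.5 Tris/MgCl2 buffer, 60 min at 37 °C. Stopped with EDTA/high-salt; 407 bp transcript detected by hybridized Europium/ATTO647N probes. 665/620 nm ratio gives activity.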
A general note: Time-resolved FRET reads energy transfer from a long-lived donor to a nearby acceptor.
Take `COCC(Oc1ccc2c(-c3ccccc3Cl)cc(=O)oc2c1)C(N)=O` (single isomer, unassigned) [Example 96, 2-((4-(2-chlorophenyl)-2-oxo-2H-chromen-7-yl)oxy)-3-methoxypropanamide]: the IC50 (as a rule, the concentration that gives 50% inhibition) amounted to 500 nM.

Compound `Cc1ccccc1-c1cc(=O)oc2cc(O[C@H](C)C(=O)N3CCS(=O)(=O)CC3)ccc12` [Example 111, (R)-7-((1-(1,1-dioxidothiomorpholino)-1-oxopropan-2-yl)oxy)-4-(o-tolyl)-2H-chromen-2-one] yielded a 50% inhibitory concentration (IC50) of 200 nM.

Consider `COCC(C)Oc1ccc2c(-c3ccccc3C)cc(=O)oc2c1` (single isomer, unassigned) [Example 27, 7-((1-methoxypropan-2-yl)oxy)-4-(o-tolyl)-2H-chromen-2-one], for which 600 nM corresponded to half-maximal inhibition (IC50).

In turn, `COc1ccc2c(-c3ccc(F)cc3Cl)cc(=O)oc2c1` [Example 21, 4-(2-chloro-4-fluorophenyl)-7-methoxy-2H-chromen-2-one] gave an IC50 of 4000 nM.

For the compound `Cc1ccccc1-c1cc(=O)oc2cc(OC(CO)C(=O)O)ccc12` (centres unmarked) [Example 102, 3-hydroxy-2-((2-oxo-4-(o-tolyl)-2H-chromen-7-yl)oxy)propanoic acid], half-maximal inhibition (IC50) was put at 1000 nM.

Regarding `COC[C@@H](Oc1ccc2c(-c3ccccc3C)cc(=O)oc2c1)C(N)=O` [Example 68, (R)-3-methoxy-2-((2-oxo-4-(o-tolyl)-2H-chromen-7-yl)oxy)propenamide], 700 nM corresponded to half-maximal inhibition (IC50).

Consider `O=c1cc(-c2ccc(F)cc2Cl)c2ccc(O)cc2o1` [Example 13, 4-(2-chloro-4-fluorophenyl)-7-hydroxy-2H-chromen-2-one], for which the IC50 turned out to be 3000 nM.

In turn, `CCCOc1ccc2c(-c3ccccc3C(F)(F)F)cc(=O)oc2c1` [Example 30, 7-propoxy-4-(2-(trifluoromethyl)phenyl)-2H-chromen-2-one] came in with an IC50 of 1000 nM.

Regarding `Cc1cc(O)cc2oc(=O)cc(-c3ccc(F)cc3)c12` [Example 16, 4-(4-fluorophenyl)-7-hydroxy-5-methyl-2H-chromen-2-one], the IC50 was more than 100000 nM.

Take `Cc1ccccc1-c1cc(=O)oc2cc(O)cc(C)c12` [Example 37, 7-hydroxy-5-methyl-4-(o-tolyl)-2H-chromen-2-one]: half-maximal inhibition (IC50) was put at 2000 nM. This lies in the single-digit micromolar range.

The compound `COC[C@@H](Oc1ccc2c(-c3ccccc3C)cc(=O)oc2c1)C(=O)O` [Example 101, (R)-3-methoxy-2-((2-oxo-4-(o-tolyl)-2H-chromen-7-yl)oxy)propanoic acid] registered an IC50 of 400 nM.

In turn, `Cc1cc(OC(C)C)cc2oc(=O)cc(-c3ccccc3)c12` [Example 23, 7-isopropoxy-5-methyl-4-phenyl-2H-chromen-2-one] had an IC50 of 87000 nM.

On to `COC[C@H](Oc1ccc2c(-c3ccccc3C)cc(=O)oc2c1)C(N)=O` [Example 67, (S)-3-methoxy-2-((2-oxo-4-(o-tolyl)-2H-chromen-7-yl)oxy)propenamide], for which the IC50 stood at 16000 nM.

In the case of `CCCOc1ccc2c(-c3cscc3C)cc(=O)oc2c1` [Example 33, 4-(4-methylthiophen-3-yl)-7-propoxy-2H-chromen-2-one], 200 nM corresponded to half-maximal inhibition (IC50).

Take `Cc1ccccc1-c1cc(=O)oc2cc(OC(C)C#N)ccc12` (single isomer, unassigned) [Example 43, 2-((2-oxo-4-(o-tolyl)-2H-chromen-7-yl)oxy)propanenitrile]: half-maximal inhibition (IC50) required 1000 nM.

Turning to `COCC(Oc1ccc2c(-c3ccccc3C)cc(=O)oc2c1)C(=O)N1CCC1` (single isomer, unassigned) [Example 89, 7-((1-(azetidin-1-yl)-3-methoxy-1-oxopropan-2-yl)oxy)-4-(o-tolyl)-2H-chromen-2-one], half-maximal inhibition (IC50) required 200 nM. This IC50 is about 5-fold lower than that of the compound before.

Take `COCC(C)Oc1ccc2c(-c3ccccc3C)cc(=O)oc2c1` (racemic) [Example 25, 7-((1-methoxypropan-2-yl)oxy)-4-(o-tolyl)-2H-chromen-2-one]: the IC50 stood at 300 nM.

Turning to `Cc1ccccc1-c1cc(=O)oc2cc(OC(CO)C(=O)N(C)C)ccc12` (single isomer, unassigned) [Example 78, 3-hydroxy-N,N-dimethyl-2-[4-(o-tolyl)-2-oxo-2H-chromen-7-yl]oxy-propanamide], the IC50 was 500 nM.

`CCCOc1ccc2c(-c3cccc4c3OCCO4)cc(=O)oc2c1` [Example 36, 4-(2,3-dihydrobenzo[b][1,4]dioxin-5-yl)-7-propoxy-2H-chromen-2-one] gave an IC50 of 50000 nM.

Take `CC(=O)N1CC[C@@H](Oc2ccc3c(-c4ccccc4C)cc(=O)oc3c2)C1` [Example 62, (R)-7-((1-acetylpyrrolidin-3-yl)oxy)-4-(o-tolyl)-2H-chromen-2-one]: the IC50 was determined as 19000 nM.

For the compound `CCCOc1ccc2c(-c3ccccc3C)cc(=O)oc2c1` [Example 02, 7-propoxy-4-(o-tolyl)-2H-chromen-2-one], half-maximal inhibition (IC50) required 90 nM.

Compound `Cc1ccccc1-c1cc(=O)oc2cc(OCCN(C)C)ccc12` [Example 08, 7-(2-(dimethylamino)ethoxy)-4-(o-tolyl)-2H-chromen-2-one] gave an IC50 of 94000 nM. Against the preceding compound, the IC50 is about 1000-fold higher.

`Cc1ccccc1-c1cc(=O)oc2cc(OC(CO)C(=O)N(C)C)ccc12` (single isomer, unassigned) [Example 79, 3-hydroxy-N,N-dimethyl-2-[4-(o-tolyl)-2-oxo-2H-chromen-7-yl]oxy-propanamide]: inhibition was half-maximal at 32000 nM (IC50).

The compound `CCCOc1ccc2c(-c3cccnc3C)cc(=O)oc2c1` [Example 53, 4-(2-methylpyridin-3-yl)-7-propoxy-2H-chromen-2-one] came in with a half-inhibitory concentration (IC50) of 800 nM.

For `COCC(C)Oc1ccc2c(-c3ccccc3C)cc(=O)oc2c1` (single isomer, unassigned) [Example 26, 7-((1-methoxypropan-2-yl)oxy)-4-(o-tolyl)-2H-chromen-2-one], the IC50 turned out to be 300 nM.

`CCNC(=O)C(COC)Oc1ccc2c(-c3ccccc3C)cc(=O)oc2c1` (single isomer, unassigned) [Example 81, N-ethyl-3-methoxy-2-((2-oxo-4-(o-tolyl)-2H-chromen-7-yl)oxy)propanamide] returned an IC50 of 200 nM.
